Experimental data published in patent US20160271086A1, “METHODS AND COMPOSITIONS FOR INDUCING REGULATORY T-CELL GENERATION” (SLOAN-KETTERING INSTITUTE FOR CANCER RESEARCH, priority 2013, published 2016).
Entries after “also recorded” stand apart in the source; their conditions may differ.

Tests used:
[1] = LC-MS analysis of butyrate in serum; format: in vivo; conditions: AVNM-treated mice given butyrate in drinking water vs unperturbed SPF mice
Text: Foxp3ΔCNS1 (CNS1 knockout), Foxp3GFP, Foxp3Thy1.1 and Gpr109a−/− mice were used in the experiments as previously described (Zheng. Y. et al. Nature, 2010, 463, 808-12; Fontenot, J. D. et al. Immunity, 2005, 22, 329-41; Kim, J. M., et al. Nat Immunol, 2007, 8, 191-7). Male C57BL/6 (B6) mice were purchased from the Jackson Laboratory and groups of 5 co-housed mice were randomly assigned to treatment vs. control groups after confirmation that age and weight were in accordance between groups. Male mice were used for all experiments. All strains were maintained in the Sloan-Kettering Institute animal facility in accordance with institutional guidelines. Mice were sacrificed by CO2 asphyxiation then blindly processed for tissue harvest thereafter. For antibiotic treatment, mice at 5-6 weeks of age were treated with 1 g L-1 metronidazole (Sigma-Aldrich), 0.5 g L-1 vancomycin (Hospira), 1 g L-1 ampicillin (Sigma-Aldrich) and 1 g L-1 kanamycin (Fisher Scientific) dissolved in drinking water. For butyrate, acetate and propionate administration, each SCFA was added to drinking water containing antibiotics (as described above) at a final concentration of 36 mM and pH-adjusted, if needed, to match that of antibiotic-only water. Butyrate was administered to mice after prior treatment with antibiotics for at least 1 week. […]

[2] = Butyrate levels in fecal pellets after butyrate in drinking water; format: in vivo; conditions: AVNM-treated mice given butyrate via drinking water
Procedure: Stool samples were collected directly into sterile tubes from live mice and snap-frozen before preparation of material for SCFA quantification by HPLC or LC-MS (see corresponding section for further sample processing).
HPLC analysis was performed for analysis of derivatized stool extracts as previously described (Torii, T. et al. Ann. Clin. Biochem, 2010, 47, 447-452). Briefly, flash-frozen stool samples were extracted with 70% ethanol and brought to a final concentration of 0.1 μg μL-1. Debris was removed by centrifugation and 300 μL of supernatant was transferred to a new tube and combined with 50 μL of internal standard (2-ethylbutyric acid, 200 mM in 50% aqueous methanol), 300 μL of dehydrated pyridine 3% v/v (Wako) in ethanol, 300 μL of 250 mM N-(3-dimethlaminopropyl)-N′-ethylcarbodiimide hydrochloride (Sigma-Aldrich) in ethanol, and 300 μL of 20 mM 2-nitrophenylhydrazine hydrochloride (Tokyo Chemical) in ethanol. Samples were incubated at 60° C. for 20 min and 200 μL of potassium hydroxide 15% w/v dissolved 80/20 in methanol was added to stop the derivatization reaction. […] Derivatized SCFA were resuspended in 100 μL of mobile phase (below) and 20 μL was chromatographed on a Shimadzu HPLC system equipped with a Vydac 2.1×30 mm 300 A C18 column run at 200 μL min-1 in methanol/acetonitrile/TFA (30%/16%/0.1% v/v) and monitored for absorbance at 400 nm.

[3] = system: Flt3L-elicited CD11c+ dendritic cells; test: DC viability by live/dead staining and flow cytometry; format: cell-based, mouse; conditions: butyrate pretreatment 6 h
naïve CD4+ T cells [4] = test: In vitro Foxp3 induction in the absence of DC (CD3/CD28 antibody-coated beads, TGF-β); format: cell-based, mouse; conditions: purified naive CD4+ T cells, CD3 and CD28 antibody-coated beads
Procedure: (§1) In vitro Foxp3 induction assays were performed by co-culturing DC with 5.5×10^4 CD4+CD44loCD62LhiCD25-naïve T cells in the presence of 1 μg ml-1 of CD3 antibody, 1 ng mL-1 TGF-β, and 100 U ml-1 IL-2, in 96-well flat-bottom plates for 4 d. For Foxp3 induction in the presence of butyrate- or TSA-pretreated DC, TGF-β was used at 0.1 ng mL-1 final concentration. In vitro induction assays in the absence of DC were performed by incubating 5.5×10^4 naïve CD4+ T cells with 1 ng mL-1 TGF-β, 100 U ml-1 IL-2, and a 1:1 cell-to-bead ratio of CD3/CD28 T activator Dynabeads (Invitrogen). For in vitro suppression assays, 4×10^4 naïve CD4+ T cells were FACS-sorted from B6 mice and cultured with graded numbers of CD4+Foxp3+ Treg cells FACS-sorted from Foxp3GFP mice treated with antibiotics and with or without butyrate, in the presence of […] irradiated T cell-depleted splenocytes and 1 μg ml-1 CD3 antibody in a 96-well round-bottom plate for 80 h. Proliferation of T cells was assessed by [3H]-thymidine incorporation during the final 8 h of culture.

Foxp3+ Treg cells = test: SCFA in drinking water to AVNM-treated mice, flow cytometric analysis of Foxp3+ Treg cell subsets; format: in vivo; conditions: for colonic Treg cells (accumulation of Treg cells in the colon): SCFA in drinking water; for Treg cell subsets in the spleen: drinking water, AVNM-treated CNS1-sufficient mice
Text: Fox[…] (CNS1 knockout), Foxp3GFP, Foxp3Thy1.1 and Gpr109a-/- mice were used in the experiments as previously described (Zheng. Y. et al. Nature, 2010, 463, 808-12; Fontenot, J. D. et al. Immunity, 2005, 22, 329-41; Kim, J. M., et al. Nat Immunol, 2007, 8, 191-7). Male C57BL/6 (B6) mice were purchased from the Jackson Laboratory and groups of 5 co-housed mice were randomly assigned to treatment vs. control groups after confirmation that age and weight were in accordance between groups. Male mice were used for all experiments. All strains were maintained in the Sloan-Kettering Institute animal facility in accordance with institutional guidelines. Mice were sacrificed by CO2 asphyxiation then blindly processed for tissue harvest thereafter. For antibiotic treatment, mice at 5-6 weeks of age were treated with 1 g L-1 metronidazole (Sigma-Aldrich), 0.5 g L-1 vancomycin (Hospira), 1 g L-1 ampicillin (Sigma-Aldrich) and 1 g L-1 kanamycin (Fisher Scientific) dissolved in drinking water. […] Butyrate was administered to mice after prior treatment with antibiotics for at least 1 week. For in vitro experiments, CD4+ T cells and CD11c+ dendritic cells were enriched using mouse CD4 (L3T4, Invitrogen) and mouse CD11c (N418, BioLegend) antibodies, respectively, that were biotinylated for use with streptavidin-Dynabeads (Invitrogen). Enriched cells were then sorted on a FACSAria II cell sorter (BD Biosciences) for in vitro assays. Intracellular staining for IL-17, IFN-γ, IL-4, IL-13 and Foxp3 was performed using the Foxp3 staining kit (eBiosciences). Cytokine staining was performed after re-stimulation with CD3 antibody and CD28 antibody (5 μg ml-1 each) in the presence of Golgi-plug (BD Biosciences) for 5 hours.

[5] = system: Foxp3 promoter and CNS1 enhancer; test: H3K27Ac ChIP-qPCR at the Foxp3 locus; format: cell-based, mouse; conditions: 3 days, CD3/CD28 beads and TGF-β
Procedure: H3K27Ac ChIP-qPCR was performed as previously described (Samstein, R. M. et al. Cell, 2012, 151, 153-66). Briefly, fixed cells were lysed and mono- and poly-nucleosomes were obtained by partial digestion with micrococcal nuclease (12,000 U mL-1) in 1 min at 37° C. EDTA was added to a final concentration of 50 mM to stop the reaction, and digested nuclei were resuspended in nuclear lysis buffer with 1% SDS. After sonication, 1 ug H3K27Ac-specific antibody (Abcam, ab4729) was used to precipitate H3K27Ac-bound chromatin. Washing and de-crosslinking was performed as described (Samstein, R. M. et al. Cell, 2012, 151, 153-66).

Flt3L-elicited DC = test: Foxp3 induction by DC pre-treated with SCFA or TSA for 6 h, washed, co-cultured with naïve CD4+ T cells; format: cell-based, mouse; conditions: DC pre-treated 6 h, then agent removed
Procedure: DC were expanded in vivo by subcutaneous injection of B16 melanoma cells secreting FLT3-ligand into the left hind flank of mice as indicated. Once tumors were visible, spleens from injected animals were dissociated in RPMI 1640 medium containing 1.67 U mL-1 liberase TL (Roche) and 50 μg mL-1 DNAse I (Roche) for 20 min at 37° C. with shaking EDTA was then added at a final concentration of 5 mM to stop digestion and the resulting homogenate was processed for CD11c+ cell isolation using the MACS mouse CD11c (N418) purification kit (Miltenyi Biotec).
as §1

naïve CD4+ T cells [6] = test: In vitro Foxp3 induction assay: naïve CD4+ T cells co-cultured with DC, CD3 antibody, TGF-β, IL-2; format: cell-based, mouse; conditions: purified SCFA
Procedure: For in vitro experiments, CD4+ T cells and CD11c+ dendritic cells were enriched using mouse CD4 (L3T4, Invitrogen) and mouse CD11c (N418, BioLegend) antibodies, respectively, that were biotinylated for use with streptavidin-Dynabeads (Invitrogen). Enriched cells were then sorted on a FACSAria II cell sorter (BD Biosciences) for in vitro assays. Intracellular staining for IL-17, IFN-γ, IL-4, IL-13 and Foxp3 was performed using the Foxp3 staining kit (eBiosciences). Cytokine staining was performed after re-stimulation with CD3 antibody and CD28 antibody (5 μg ml-1 each) in the presence of Golgi-plug (BD Biosciences) for 5 hours. DC were expanded in vivo by subcutaneous injection of B16 melanoma cells secreting FLT3-ligand into the left hind flank of mice as indicated. Once tumors were visible, spleens from injected animals were dissociated in RPMI 1640 medium containing 1.67 U mL-1 liberase TL (Roche) and 50 μg mL-1 DNAse I (Roche) for 20 min at 37° C. with shaking EDTA was then added at a final concentration of 5 mM to stop digestion and the resulting homogenate was processed for CD11c+ cell isolation using the MACS mouse CD11c (N418) purification kit (Miltenyi Biotec). In vitro Foxp3 induction assays were performed by co-culturing DC with 5.5×10^4 CD4+CD44loCD62LhiCD25-naïve T cells in the presence of 1 μg ml-1 of CD3 antibody, 1 ng mL-1 TGF-β, and 100 U ml-1 IL-2, in 96-well flat-bottom plates for 4 d. For Foxp3 induction in the presence of butyrate- or TSA-pretreated DC, TGF-β was used at 0.1 ng mL-1 final concentration. In vitro induction assays in the absence of DC were performed by incubating 5.5×10^4 naïve CD4+ T cells with 1 ng mL-1 TGF-β, 100 U ml-1 IL-2, and a 1:1 cell-to-bead ratio of CD3/CD28 T activator Dynabeads (Invitrogen). […] Proliferation of T cells was assessed by [3H]-thymidine incorporation during the final 8 h of culture.

GPR43 = biological target: T1, GPR43 (Mus musculus, UniProt Q8VCK6); conditions: Smith et al. Science 2013; cited from earlier work
T1 sequence (Q8VCK6 1-330): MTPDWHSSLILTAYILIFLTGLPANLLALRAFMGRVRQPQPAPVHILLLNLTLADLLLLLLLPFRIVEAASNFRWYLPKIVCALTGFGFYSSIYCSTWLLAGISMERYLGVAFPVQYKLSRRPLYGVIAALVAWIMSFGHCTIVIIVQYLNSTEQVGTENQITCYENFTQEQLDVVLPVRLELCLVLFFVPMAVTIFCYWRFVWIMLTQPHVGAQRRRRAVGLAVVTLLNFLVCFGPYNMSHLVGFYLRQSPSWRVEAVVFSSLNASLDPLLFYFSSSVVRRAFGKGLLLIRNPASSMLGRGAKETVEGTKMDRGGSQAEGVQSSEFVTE

| SMILES | butyrate serum levels [1] | levels of butyrate in fecal pellets [2] | DC viability [3] | increase in numbers of Foxp3+ cells in DC-free cultures (naïve CD4+ T cells [4]) | non-lymphoid tissue histology (Foxp3+ Treg cells; butyrate in drinking water, AVNM-treated mice) | increase in H3K27-Ac occupancy ([5]; Foxp3+ cells) | increase in H3K27-Ac at the Foxp3 promoter and CNS1 enhancer ([5]; Foxp3− cells) | ability of pre-treated DCs to induce Foxp3 expression in naïve CD4+ T cells (Flt3L-elicited DC) | TGF-β-dependent generation of Foxp3+ cells in vitro (naïve CD4+ T cells [6]) | accumulation of Treg cells in the colon by activating GPR43 (GPR43) | colonic Treg cells (accumulation of Treg cells in the colon) (Foxp3+ Treg cells; AVNM-treated mice) | Treg cell subsets in the spleen (Foxp3+ Treg cells) |
| --- | --- | --- | --- | --- | --- | --- | --- | --- | --- | --- | --- | --- |
| CCCC(=O)O [butyrate] | comparable to those found in unperturbed SPF mice | not reconstituted | no detrimental effect; also recorded: maintain | < 1.5 fold | remained unchanged | ~30% | 3 fold | – | – | – | – | – |
| CCC(=O)O [propionate] | – | – | – | – | – | – | – | to a lesser extent | augmented | promote accumulation | promoted accumulation | increased |
| CC(C)CC(=O)O [isovalerate] | – | – | – | – | – | – | – | – | augmented | – | – | – |
| CC(=O)O [acetate] | – | – | – | – | – | – | – | not | not | promote accumulation | promoted accumulation | did not increase |
